Laboratory results published in patent US20110223132A1, “ISOTHIAZOLOQUINOLONES AND RELATED COMPOUNDS AS ANTI-INFECTIVE AGENTS” (priority 2003, published 2011).
≈ marks a conversion by molar mass, not a printed value.

What was measured:
E. coli ATCC 25922 = experiment: Minimum inhibitory concentration (MIC) assay, broth microdilution; format: cell-based; settings: Escherichia coli, ATCC25922; E. coli ATCC 25922, Mueller-Hinton II broth, 37° C., 18 to 24 hours
Description: (§1) The antimicrobial activity of the compounds of the invention may be evaluated by a number of methods, including the following visual minimum inhibitory concentration (MIC) assay. This assay determines the minimum concentration of compound required to inhibit growth of a bacterial strain. Whole-cell antibacterial activity is determined by broth microdilution using conditions recommended by the NCCLS (see National Committee for Clinical Laboratory Standards. 2001. Performance standards for antimicrobial susceptibility testing: 11th informational supplement. Vol. 21, no. 1, M100-S11. National Committee for Clinical Laboratory Standards, Wayne, Pa.). Test compounds are dissolved in DMSO and diluted 1:50 in Mueller-Hinton II broth (Becton-Dickinson) to produce a 256 μg/ml stock solution. In a 96-well microtiter plate, the compound solution is serially two-fold diluted in Mueller-Hinton II broth. After the compounds are diluted, a […] aliquot of the test organism (˜1×10^6 cfu/mL) is added to each well of the microtiter plate. The final test concentrations range from 0.125-128 μg/mL Inoculated plates are incubated in ambient air at 37° C. for 18 to 24 hours. The organisms selected for testing included laboratory strains S. aureus ATCC 29213 and E. coli ATCC 25922 (strains purchased from American Type Culture Collection, Manassas, Va.). The minimum inhibitory concentration (MIC) was determined as the lowest concentration of compound that inhibited visible growth of the test organism.

S. aureus ATCC 29213 = experiment: as above; format: cell-based; settings: Staphylococcus aureus, ATCC29213; S. aureus ATCC 29213, Mueller-Hinton II broth, 37° C., 18 to 24 hours
Description: as §1

[1] = Compound cytotoxicity, cell viability staining with Alamar Blue; format: cell-based; settings: human, Hep 2 cells (laryngeal carcinoma), positive control
Description: (§2) Optimal cell density is first determined by plating cells in a 96-well plate standard sterile tissue culture plates in 100 μl media, 10% FBS at six cell densities from 500 cells/well to 15,000 cells/well. A cell free well containing only media is used as a control. Cells are incubated at 37° C. in a 5% CO2 incubator for 24 hours. 10% culture volume (10 ul) of Alamar Blue (Biosource, DAL1100, 100 mL) is then added. Cells are incubated at 37° C. in a 5% CO2 incubator and read in a Victor V plate reader, 544 nm excitation, 590 nm emission, at 3, 4, and 24 hours after the addition of Alamar Blue. The cell number vs. change in fluorescence is plotted to determine linearity of signal vs. cell number. The optimal density varies between 500-15,000 cells/well depending on the specific cell type. The optimal density is selected based on the highest number of cells that is still in the linear response range. Cells are plated at optimal cell density in a standard sterile tissue culture 96 well plate, and incubated at 37° C., O/N in a 5% CO2 incubator. 12 to 48 hours post-plating media is removed. […] Plates are incubated 4 hours at 37° C. in a 5% CO2 incubator and read in a Victor V plate reader, 544 nm excitation, 590 nm emission. […] The change in fluorescence vs. concentration of test compound is plotted to determine the cytotoxicity of the compound.

[2] = as above; format: cell-based; settings: Chinese hamster, CHO cells (Chinese hamster ovary), positive control
Description: as §2

MIC (E. coli ATCC 25922)	MIC (S. aureus ATCC 29213)	SMILES	further results
		O=c1[nH]sc2c1c(=O)c1cc(F)c(C3=CCNCC3)cc1n2C1CC1	melting point: > 241 °C (dec.)
		NC1CCc2cc(-c3cc4c(cc3F)c(=O)c3c(=O)[nH]sc3n4C3CC3)ccc2C1 (racemic) [Compound 31, (Rac)-7-(6-Amino-5,6,7,8-Tetrahydronaphthalen-2-Yl)-9-Cyclopropyl-6-Fluoro-9H-Isothiazolo[5,4-B]Quinoline-3,4-Dione]	melting point: > 257 °C (dec.)
0.06 µg/mL (≈ 0.17 µM)	0.007 µg/mL (≈ 0.0199 µM)	O=c1[nH]sc2c1c(=O)c1cc(F)c(-c3ccccc3)cc1n2C1CC1 [Compound 32, 9-Cyclopropyl-6-fluoro-7-phenyl-9H-isothiazolo[5,4-b]quinoline-3,4-dione]	
0.003 µg/mL (≈ 0.00849 µM)	0.007 µg/mL (≈ 0.0198 µM)	O=c1[nH]sc2c1c(=O)c1cc(F)c(-c3cccnc3)cc1n2C1CC1 [Compound 33, 9-Cyclopropyl-6-fluoro-7-pyridin-3-yl-9H-isothiazolo [5,4-b]quinoline-3,4-dione]	
1 µg/mL (≈ 2.52 µM)	0.125 µg/mL (≈ 0.315 µM)	O=C(O)c1cccc(-c2cc3c(cc2F)c(=O)c2c(=O)[nH]sc2n3C2CC2)c1 [Compound 34, 3-(9-Cyclopropyl-6-fluoro-3,4-dioxo-2,3,4,9-tetrahydro-isothiazolo[5,4-b]quinolin-7-yl)-benzoic acid]	
1 µg/mL (≈ 2.52 µM)	0.03 µg/mL (≈ 0.0757 µM)	CCOc1cccc(-c2cc3c(cc2F)c(=O)c2c(=O)[nH]sc2n3C2CC2)c1 [Compound 35, 9-Cyclopropyl-7-(3-ethoxy-phenyl)-6-fluoro-9H-isothiazolo[5,4-b]quinoline-3,4-dione]	
		CC(C)(C)c1ccc(C(O)CCCN2CCC(C(O)(c3ccccc3)c3ccccc3)CC2)cc1 (stereo not drawn) [Terfenadine]	CC50 [1]: 3 to 5 µM; CC50 [2]: 4.3 to 6.5 µM
